Reference: patent publication US5294617A, “Angiotensin II receptor blocking 2,3,6 substituted quinazolinones” (American Cyanamid Company, priority 1993, dated 1994)

Target: T1, Angiotensin II Receptor (Bos taurus, UniProt P25104)
T1 construct: The brownish tissue forming the adrenal cortex is scraped off and finely minced with scissors before homogenization; tissue local slaughter house (Maxwell--Cohen); host or cells: beef adrenal cortex, microsomal membranes (100,000×g pellet)
T1 sequence (P25104 1-359): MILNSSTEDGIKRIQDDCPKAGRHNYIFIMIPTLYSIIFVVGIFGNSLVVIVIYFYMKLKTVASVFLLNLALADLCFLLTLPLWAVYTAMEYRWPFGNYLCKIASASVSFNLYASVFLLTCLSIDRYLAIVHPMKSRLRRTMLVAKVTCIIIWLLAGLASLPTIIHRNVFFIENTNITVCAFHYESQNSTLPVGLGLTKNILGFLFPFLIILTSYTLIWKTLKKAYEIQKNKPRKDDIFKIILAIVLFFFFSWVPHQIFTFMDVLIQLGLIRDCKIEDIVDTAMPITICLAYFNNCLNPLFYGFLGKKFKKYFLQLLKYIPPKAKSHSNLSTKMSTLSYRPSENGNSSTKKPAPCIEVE
Assay: Receptor Binding Assay: binding of [125I](Sar1,Ile8)AngII to beef adrenal cortex membranes
Conditions: radioligand, beef adrenal membranes; non-specific with 1.0 uM unlabeled (Sar1,Ile8)AngII
From the text: [^125 I](Sar^1,Ile^8)AngII, S.A. 2200 Ci/mmole, is purchased from Dupont (NEN®, Boston, Mass.). All unlabeled AngII analogs, Dimethylsulfoxide (DMSO), nucleotides, bovine serum albumin (BSA) are purchased from Sigma Chemical Co., St. Louis, Mo. U.S.A.
Approximately sixteen (16) to twenty (20) beef adrenal glands are processed as follows: fresh adrenal glands received on crushed ice are cleaned of fatty tissues and the tough membranes encapsulating the glands are removed and discarded. The brownish tissue forming the adrenal cortex is scraped off and finely minced with scissors before homogenization. Care is taken to avoid contamination with medullary tissue during dissection. The scraped cortices are suspended in twenty volumes of an ice-cold buffer medium consisting of 10 mM Tris.HCl (pH 7.4 at 22° C.) and containing 1.0 mM EDTA and 0.2M sucrose. Unless otherwise indicated, all subsequent operations are done at 4° C. […] The homogenate is centrifuged first at low speed (3,000×g) for 10 min. […] This P2 pellet is discarded and the liquid phase is carefully decanted off in clean centrifuge tubes and recentrifuged at high speed (100,000×g) for 60 min. The translucent final pellet is harvested and combined in a small volume (20-50.0 ml) of 50.0 mM Tris.HCl buffer, pH 7.2. […] The pelleted membrane is reconstituted in 50.0 mM Tris.HCl buffer containing 0.1 mM of phenylmethylsulfonyl fluoride (PMSF) to give approximately a protein concentration of 2.5 mg per ml of tissue suspension. The membrane preparation is finally aliquoted in 1.0 ml volumes and stored at -70° C. until use in the binding assays.
In competition studies, experimental compounds are diluted in dimethylsulfoxide (DMSO) and added in 20 ul to wells before the introduction of tissue membranes. […] Assays are performed in triplicate. The wells are left undisturbed for 60 min. at room temperature. […] The filters are removed from the filter grid and counted in a Parkard® Cobra Gamma Counter for 1 min. […] The binding data are analyzed by the non-linear interactive "LUNDON-1" program (LUNDON SOFTWARE Inc., Cleveland, Ohio U.S.A.).

Specific binding: greater than 90%
Substance: [^125 I](Sar^1,Ile^8) AngII [reference compound]
